Reference: patent US10072011B2, “Substituted bridged urea analogs as sirtuin modulators” (GlaxoSmithKline Intellectual Property (No.2) Limited, priority 2014, dated 2018)
Where two headings read alike, the source gives them in different places.

Biological target: T1, SIRT1 (Homo sapiens, UniProt Q96EB6)
T1 sequence (Q96EB6 1-747): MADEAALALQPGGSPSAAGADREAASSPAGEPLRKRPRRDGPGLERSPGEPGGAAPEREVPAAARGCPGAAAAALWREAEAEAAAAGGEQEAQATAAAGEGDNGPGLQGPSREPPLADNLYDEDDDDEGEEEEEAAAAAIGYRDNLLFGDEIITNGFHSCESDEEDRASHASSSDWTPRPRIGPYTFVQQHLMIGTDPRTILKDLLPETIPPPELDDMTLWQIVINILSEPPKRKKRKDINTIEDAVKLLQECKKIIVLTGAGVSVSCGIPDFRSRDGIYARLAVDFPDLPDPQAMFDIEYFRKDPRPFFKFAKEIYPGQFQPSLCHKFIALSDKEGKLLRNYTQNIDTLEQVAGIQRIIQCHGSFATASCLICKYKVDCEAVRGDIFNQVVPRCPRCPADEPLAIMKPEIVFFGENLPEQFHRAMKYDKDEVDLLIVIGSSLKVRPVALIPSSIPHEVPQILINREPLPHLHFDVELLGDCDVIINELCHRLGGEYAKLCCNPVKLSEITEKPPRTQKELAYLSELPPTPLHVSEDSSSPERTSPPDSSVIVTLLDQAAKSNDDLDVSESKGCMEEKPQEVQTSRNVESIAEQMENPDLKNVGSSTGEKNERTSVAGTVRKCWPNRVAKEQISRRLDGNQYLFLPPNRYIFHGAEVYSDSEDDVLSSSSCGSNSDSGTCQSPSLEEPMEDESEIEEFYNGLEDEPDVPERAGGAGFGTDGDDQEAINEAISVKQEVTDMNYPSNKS
Assay: Trp mass spectrometry assay of SIRT1 activation (Ac-R-H-K-K(Ac)-W-NH2 peptide)
Type: biochemical
Details: for Emax: 25 min, read-out: TRP MAX RESP (percent maximum fold activation)
In short: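 N-terminal His-tagged human SIRT1, expressed in BL21(DE3) and purified, was incubated 25 min with an acetylated Trp peptide and NAD plus test compound at varying concentrations, then quenched with formic acid. OAADPR or deacetylated peptide was quantified by mass spectrometry versus compound-free control; EC1.5 is the concentration giving 50% activity increase, with percent maximum activation.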

[1] = Trp peptide 0.5 μM, 120 μM βNAD+, 10 nM SIRT1, 25 min at 25° C., relative to control (100%)
[2] = Trp peptide 0.5 μM, 120 μM βNAD+, 10 nM SIRT1, 25 min at 25° C.

Emax [1] [%]	TRP Activity (EC1.5, concentration of test compound that results in 150% activation of SIRT1) [2]	TRP MAX RESP (percent maximum fold activation) [1]	SMILES	Emax [%]
> 150	B (EC1.5 1-25 μM)	–	O=C(NC[C@H]1CCCO1)c1ccc2c(n1)N(C(=O)Nc1ccccn1)[C@H]1CCN2C1 [Example 42, (4S)—N5-(pyridin-2-yl)-N7-(((R)-tetrahydrofuran-2-yl)methyl)-3,4-dihydro-1,4-methanopyrido[2,3-b][1,4]diazepine-5,7(2H)-dicarboxamide]	–
> 150	A (EC1.5<1 μM)	–	O=C(NCC(F)(F)F)c1ccc2c(n1)N(C(=O)Nc1cc3c(cn1)OCCC3)[C@H]1CCN2C1 [Example 133, (4S)—N5-(3,4-dihydro-2H-pyrano[2,3-c]pyridin-6-yl)-N7-(2,2,2-trifluoroethyl)-3,4-dihydro-1,4-methanopyrido[2,3-b][1,4]diazepine-5,7(2H)-dicarboxamide]	–
–	A (EC1.5<1 μM)	–	O=C(NC1CC1(F)F)c1ccc2c(n1)N(C(=O)Nc1ccc(F)cn1)[C@H]1CCN2C1 (single isomer, unassigned) [Example 243]	–
> 150	A (EC1.5<1 μM)	–	C[C@@H](NC(=O)c1ccc2c(n1)N(C(=O)Nc1cnccn1)[C@H]1CCN2C1)C(F)(F)F [Example 237, (4S)—N5-(pyrazin-2-yl)-N7-((R)-1,1,1-trifluoropropan-2-yl)-3,4-dihydro-1,4-methanopyrido[2,3-b][1,4]diazepine-5,7(2H)-dicarboxamide]	–
> 150	A (EC1.5<1 μM)	–	O=C(NC(CCO)C(F)(F)F)c1ccc2c(n1)N(C(=O)Nc1ccccn1)[C@H]1CCN2C1 (single isomer, unassigned) [Example 18]	–
> 150	A (EC1.5<1 μM)	–	Cc1cc(NC(=O)N2c3nc(C(=O)N[C@H](C)C(F)(F)F)ccc3N3CC[C@H]2C3)ncc1F [Example 238, (4S)—N5-(5-fluoro-4-methylpyridin-2-yl)-N7-((R)-1,1,1-trifluoropropan-2-yl)-3,4-dihydro-1,4-methanopyrido[2,3-b][1,4]diazepine-5,7(2H)-dicarboxamide]	–
> 150	B (EC1.5 1-25 μM)	–	C[C@@H](CO)NC(=O)c1ccc2c(n1)N(C(=O)Nc1ccccn1)[C@H]1CCN2C1 [Example 53, (4S)—N7-((S)-1-hydroxypropan-2-yl)-N5-(pyridin-2-yl)-3,4-dihydro-1,4-methanopyrido[2,3-b][1,4]diazepine-5,7(2H)-dicarboxamide]	–
> 150	A (EC1.5<1 μM)	–	C[C@@H](NC(=O)c1ccc2c(n1)N(C(=O)Nc1cncc(OC[C@H](O)CO)n1)[C@H]1CCN2C1)C(F)(F)F [Example 155, (4S)—N5-(6-((R)-2,3-dihydroxypropoxy)pyrazin-2-yl)-N7-((R)-1,1,1-trifluoropropan-2-yl)-3,4-dihydro-1,4-methanopyrido[2,3-b][1,4]diazepine-5,7(2H)-dicarboxamide]	–
> 150	B (EC1.5 1-25 μM)	–	COc1cc(NC(=O)N2c3nc(C(=O)NCC4CC4)ccc3N3CC[C@H]2C3)ncn1 [Example 113, (4S)—N7-(cyclopropylmethyl)-N5-(6-methoxypyrimidin-4-yl)-3,4-dihydro-1,4-methanopyrido[2,3-b][1,4]diazepine-5,7(2H)-dicarboxamide]	–
> 150	B (EC1.5 1-25 μM)	–	CS(=O)(=O)c1ccc(NC(=O)N2c3nc(C(=O)NCC(F)(F)F)ccc3N3CC[C@H]2C3)nc1 [Example 146, (4S)—N5-(5-(methylsulfonyl)pyridin-2-yl)-N7-(2,2,2-trifluoroethyl)-3,4-dihydro-1,4-methanopyrido[2,3-b][1,4]diazepine-5,7(2H)-dicarboxamide]	–
> 150	B (EC1.5 1-25 μM)	–	NCC(F)(F)CNC(=O)c1ccc2c(n1)N(C(=O)Nc1ccccn1)[C@H]1CCN2C1 [Example 94, (4S)—N7-(3-amino-2,2-difluoropropyl)-N5-(pyridin-2-yl)-3,4-dihydro-1,4-methanopyrido[2,3-b][1,4]diazepine-5,7(2H)-dicarboxamide]	–
> 150	A (EC1.5<1 μM)	–	CNC(=O)c1ccnc(NC(=O)N2c3nc(C(=O)N[C@H](C)C(F)(F)F)ccc3N3CC[C@H]2C3)c1 [Example 151, (4S)—N5-(4-(methylcarbamoyl)pyridin-2-yl)-N7-((R)-1,1,1-trifluoropropan-2-yl)-3,4-dihydro-1,4-methanopyrido[2,3-b][1,4]diazepine-5,7(2H)-dicarboxamide]	–
> 150	A (EC1.5<1 μM)	–	Cn1cccc(NC(=O)N2c3nc(C(=O)NCC(F)(F)F)ccc3N3CC[C@H]2C3)c1=O [Example 23, (4S)—N5-(1-methyl-2-oxo-1,2-dihydropyridin-3-yl)-N7-(2,2,2-trifluoroethyl)-3,4-dihydro-1,4-methanopyrido[2,3-b][1,4]diazepine-5,7(2H)-dicarboxamide]	–
> 150	B (EC1.5 1-25 μM)	–	Cc1ncc(-c2ccnc(NC(=O)N3c4nc(C(=O)NC5CC5)ccc4N4CC[C@H]3C4)c2)o1 [Example 123, (4S)—N7-cyclopropyl-N5-(4-(2-methyloxazol-5-yl)pyridin-2-yl)-3,4-dihydro-1,4-methanopyrido[2,3-b][1,4]diazepine-5,7(2H)-dicarboxamide]	–
–	B (EC1.5 1-25 μM)	A (Fold activation≥150%)	O=C(NC1CC1(F)F)c1ccc2c(n1)N(C(=O)Nc1cccnn1)[C@H]1CCN2C1 (single isomer, unassigned) [Example 271]	–
> 150	A (EC1.5<1 μM)	–	Cc1cc(C(=O)N[C@H](C)C(F)(F)F)nc2c1N1CC[C@@H](C1)N2C(=O)Nc1ccccn1 [Example 288, (4S)-9-methyl-N5-(pyridin-2-yl)-N7-((R)-1,1,1-trifluoropropan-2-yl)-3,4-dihydro-1,4-methanopyrido[2,3-b][1,4]diazepine-5,7(2H)-dicarboxamide]	–
> 150	–	–	O=C(NCCO)c1ccc2c(n1)N(C(=O)Nc1ccccn1)[C@H]1CCN2C1 [Example 13, (4S)—N-7-(2-hydroxyethyl)-N-5-(pyridin-2-yl)-3,4-dihydro-1,4-methanopyrido [2,3-b] [1, 4] diazepine-5, 7(2H)-dicarboxamide]	–
> 150	A (EC1.5<1 μM)	–	O=C(NC1CC1(F)F)c1ccc2c(n1)N(C(=O)Nc1cnccn1)[C@H]1CCN2C1 (single isomer, unassigned) [Example 272]	–
> 150	B (EC1.5 1-25 μM)	–	NC(=O)c1ccc2c(n1)N(C(=O)Nc1ccccn1)[C@H]1CCN2C1 [Example 257, (4S)—N5-(pyridin-2-yl)-3,4-dihydro-1,4-methanopyrido[2,3-b][1,4]diazepine-5,7(2H)-dicarboxamide]	–
> 150	B (EC1.5 1-25 μM)	–	NC(CNC(=O)c1ccc2c(n1)N(C(=O)Nc1ncccn1)[C@H]1CCN2C1)C(F)(F)F (single isomer, unassigned) [Example 198]	–
> 150	A (EC1.5<1 μM)	–	COc1cc2c(nc1C(=O)NCC(F)(F)F)N(C(=O)Nc1ccccn1)[C@H]1CCN2C1 [Example 284, (4S)-8-methoxy-N5-(pyridin-2-yl)-N7-(2,2,2-trifluoroethyl)-3,4-dihydro-1,4-methanopyrido[2,3-b][1,4]diazepine-5,7(2H)-dicarboxamide]	–

SMILES	Emax [1] [%]	TRP Activity (EC1.5, concentration of test compound that results in 150% activation of SIRT1) [2]	TRP MAX RESP (percent maximum fold activation) [1]	Emax [%]
O=C(NCC(F)(F)F)c1ccc2c(n1)N(C(=O)Nc1ncc3[nH]ccc3n1)[C@H]1CCN2C1 [Example 140, (4S)—N5-(5H-pyrrolo[3,2-d]pyrimidin-2-yl)-N7-(2,2,2-trifluoroethyl)-3,4-dihydro-1,4-methanopyrido[2,3-b][1,4]diazepine-5,7(2H)-dicarboxamide]	–	A (EC1.5<1 μM)	–	> 150
